The test system of one experiment is NALM-16. The experiment can be described thus: selective drug sensitivity score (sDSS, relative to normal bone marrow) (sDSS (score)); higher = more potent and effective on the cell line relative to normal bone marrow cells. The settings on record: 72 h.
Turning to `Nc1nc2[nH]cnc2c(=S)[nH]1` [Thioguanine] (top concentration 10000 nM), the “selective drug sensitivity score” value is 7.74.
Same read-out and setting: the same measure for `CC#CC(=O)N1CC[C@@H](n2c(=O)n(-c3ccc(Oc4ccccc4)cc3)c3c(N)ncnc32)C1` [Tirabrutinib] (top concentration 1000 nM): 0; for `CC(C)C[C@@H](C(=O)N[C@H](C(=O)OC1CCCC1)c1ccccc1)[C@H](O)C(=O)NO` [Tosedostat] (top concentration 10000 nM): 3.06; for `CS(=O)(=O)c1ccc(-c2cnc(N)c(C(=O)Nc3ccccc3)n2)cc1` [VE-821] (top concentration 10000 nM): -0.66.
Turning to `CNC(=O)c1ccccc1Nc1cc(Nc2ccc(N3CCOCC3)cc2OC)ncc1C(F)(F)F` [VS-4718] (top concentration 10000 nM), the “selective drug sensitivity score” value is 0.
The same measure, in the same setting: the same measure for `Cc1cccc(-c2[nH]c(CNc3ccccc3F)nc2-c2ccc3ncnn3c2)n1` [Vactosertib (TEW-7197)] (top concentration 2500 nM): -0.4; for `O=C(/C=C\n1cnc(-c2cc(C(F)(F)F)cc(C(F)(F)F)c2)n1)NNc1ccccn1` [Verdinexor] (top concentration 1000 nM): -0.36; for `CC[C@@H]1C(=O)N(C)c2cnc(Nc3ccc(C(=O)N[C@H]4CC[C@H](N5CCN(CC6CC6)CC5)CC4)cc3OC)nc2N1C(C)C` [Volasertib] (top concentration 1000 nM): 11.3.
Turning to `O=C(CCCCCCC(=O)Nc1ccccc1)NO` [Vorinostat] (top concentration 10000 nM), the “selective drug sensitivity score” value worked out at 1.5.

Another experiment has as its system COG-LL-402h. Described as above. As to conditions: 72 h.
Take `CN(C)Cc1ccc(S(=O)(=O)n2ccc(/C=C/C(=O)NO)c2)cc1` [Resminostat] (top concentration 10000 nM): the “selective drug sensitivity score” value was 10.2.
For `COc1cc(OC)c(/C=C/S(=O)(=O)Cc2ccc(OC)c(NCC(=O)O)c2)c(OC)c1` [Rigosertib] (top concentration 10000 nM), the “selective drug sensitivity score” value was 14.2.
In the case of `COc1ccc(CCc2nc3cc(-c4c(C)noc4C)ccc3n2C[C@H](C)N2CCOCC2)cc1Cl` [SGC-CBP30] (top concentration 25000 nM), the “selective drug sensitivity score” value came to 7.78.
As to `CCS(=O)(=O)c1cccc(-c2cc(C(=O)NC3CCN(C)CC3)c(C)c3[nH]c4ncc(C)cc4c23)c1` [TAK-901] (top concentration 1000 nM), the “selective drug sensitivity score” value came out at 8.96.
The same measure, in the same setting: the same measure for `Nc1nc(NC2CC2)cc(-c2cccc(Cl)c2Cl)n1` [TH588] (top concentration 25000 nM): 3.72.
Same read-out and setting: for `CC(=O)Nc1ccc(C(=O)Nc2ccccc2N)cc1` [Tacedinaline] (top concentration 1000 nM) the value was 0.38; for `Cn1ncnc1[C@H]1c2n[nH]c(=O)c3cc(F)cc(c23)N[C@@H]1c1ccc(F)cc1` [Talazoparib] (top concentration 1000 nM), 11.1; for `COc1cccc2c1c(O)c(C(=O)N(C)c1ccc(C(F)(F)F)cc1)c(=O)n2C` [Tasquinimod] (top concentration 10000 nM), -0.42.
Take `Nc1nc2[nH]cnc2c(=S)[nH]1` [Thioguanine] (top concentration 10000 nM): the “selective drug sensitivity score” value amounted to 6.34.
The same measure, in the same setting: the same measure for `CC#CC(=O)N1CC[C@@H](n2c(=O)n(-c3ccc(Oc4ccccc4)cc3)c3c(N)ncnc32)C1` [Tirabrutinib] (top concentration 1000 nM): 5.2.
`CC(C)C[C@@H](C(=O)N[C@H](C(=O)OC1CCCC1)c1ccccc1)[C@H](O)C(=O)NO` [Tosedostat] (top concentration 10000 nM): the “selective drug sensitivity score” value is -0.74.
Regarding `CS(=O)(=O)c1ccc(-c2cnc(N)c(C(=O)Nc3ccccc3)n2)cc1` [VE-821] (top concentration 10000 nM), the “selective drug sensitivity score” value was determined as 0.34.
As to `CNC(=O)c1ccccc1Nc1cc(Nc2ccc(N3CCOCC3)cc2OC)ncc1C(F)(F)F` [VS-4718] (top concentration 10000 nM), the “selective drug sensitivity score” value was -4.5.
On to `Cc1cccc(-c2[nH]c(CNc3ccccc3F)nc2-c2ccc3ncnn3c2)n1` [Vactosertib (TEW-7197)] (top concentration 2500 nM), for which the “selective drug sensitivity score” value is 1.1.
On the same count and under the same terms, the same measure for `O=C(/C=C\n1cnc(-c2cc(C(F)(F)F)cc(C(F)(F)F)c2)n1)NNc1ccccn1` [Verdinexor] (top concentration 1000 nM): 9.34; for `CC[C@@H]1C(=O)N(C)c2cnc(Nc3ccc(C(=O)N[C@H]4CC[C@H](N5CCN(CC6CC6)CC5)CC4)cc3OC)nc2N1C(C)C` [Volasertib] (top concentration 1000 nM): 11.
Take `O=C(CCCCCCC(=O)Nc1ccccc1)NO` [Vorinostat] (top concentration 10000 nM): the “selective drug sensitivity score” value was 10.2.

The next experiment deals with KOPN-8. The experiment is described as above. The settings on record: 72 h.
As for `CN(C)Cc1ccc(S(=O)(=O)n2ccc(/C=C/C(=O)NO)c2)cc1` [Resminostat] (top concentration 10000 nM), the “selective drug sensitivity score” value turned out to be 10.1.
On the same count and under the same terms, for `COc1cc(OC)c(/C=C/S(=O)(=O)Cc2ccc(OC)c(NCC(=O)O)c2)c(OC)c1` [Rigosertib] (top concentration 10000 nM) the value was 18.4; for `COc1ccc(CCc2nc3cc(-c4c(C)noc4C)ccc3n2C[C@H](C)N2CCOCC2)cc1Cl` [SGC-CBP30] (top concentration 25000 nM), 6.18; for `CCS(=O)(=O)c1cccc(-c2cc(C(=O)NC3CCN(C)CC3)c(C)c3[nH]c4ncc(C)cc4c23)c1` [TAK-901] (top concentration 1000 nM), 10.8.
The same measure, in the same setting: the same measure for `Nc1nc(NC2CC2)cc(-c2cccc(Cl)c2Cl)n1` [TH588] (top concentration 25000 nM): 7.22; for `CC(=O)Nc1ccc(C(=O)Nc2ccccc2N)cc1` [Tacedinaline] (top concentration 1000 nM): 15.5; for `Cn1ncnc1[C@H]1c2n[nH]c(=O)c3cc(F)cc(c23)N[C@@H]1c1ccc(F)cc1` [Talazoparib] (top concentration 1000 nM): 27.5.
Still for that read-out and setting: the same measure for `COc1cccc2c1c(O)c(C(=O)N(C)c1ccc(C(F)(F)F)cc1)c(=O)n2C` [Tasquinimod] (top concentration 10000 nM): -0.42; for `Nc1nc2[nH]cnc2c(=S)[nH]1` [Thioguanine] (top concentration 10000 nM): 13.2; for `CC#CC(=O)N1CC[C@@H](n2c(=O)n(-c3ccc(Oc4ccccc4)cc3)c3c(N)ncnc32)C1` [Tirabrutinib] (top concentration 1000 nM): 4.1.
On to `CC(C)C[C@@H](C(=O)N[C@H](C(=O)OC1CCCC1)c1ccccc1)[C@H](O)C(=O)NO` [Tosedostat] (top concentration 10000 nM), for which the “selective drug sensitivity score” value stood at 10.8.
`CS(=O)(=O)c1ccc(-c2cnc(N)c(C(=O)Nc3ccccc3)n2)cc1` [VE-821] (top concentration 10000 nM): the “selective drug sensitivity score” value came out at 8.74.
With `CNC(=O)c1ccccc1Nc1cc(Nc2ccc(N3CCOCC3)cc2OC)ncc1C(F)(F)F` [VS-4718] (top concentration 10000 nM), the “selective drug sensitivity score” value is -3.1.
Same read-out and setting: for `Cc1cccc(-c2[nH]c(CNc3ccccc3F)nc2-c2ccc3ncnn3c2)n1` [Vactosertib (TEW-7197)] (top concentration 2500 nM) the value was -0.5.
With `O=C(/C=C\n1cnc(-c2cc(C(F)(F)F)cc(C(F)(F)F)c2)n1)NNc1ccccn1` [Verdinexor] (top concentration 1000 nM), the “selective drug sensitivity score” value is 8.34.
Same read-out and setting: the same measure for `CC[C@@H]1C(=O)N(C)c2cnc(Nc3ccc(C(=O)N[C@H]4CC[C@H](N5CCN(CC6CC6)CC5)CC4)cc3OC)nc2N1C(C)C` [Volasertib] (top concentration 1000 nM): 12.4; for `O=C(CCCCCCC(=O)Nc1ccccc1)NO` [Vorinostat] (top concentration 10000 nM): 13.4.
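Note: ALL cell lines in 384-well plates, five doses spanning 10,000-fold, each plate scaled between vehicle and 100 µmol/L benzalkonium chloride controls, sDSS an adapted area-under-curve metric.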
